The results in this text go back to patent publication US9365551B2, “2-(benzyloxy) benzamides as LRRK2 kinase inhibitors” (Glaxo Group Limited, priority 2010, dated 2016).

SMILES strings stand for the structures. Counter-ions that a name gives are not always drawn. A value given as a limit tells only on which side of the number the result lay.

The target of assay [1] is T1, 6His-Tev-LRRK2 (1326-2527) (Homo sapiens, UniProt Q5S007).
T1 construct: A LRRK2 cDNA encoding residues 1326-2527 was received from Dundee University; made in house; host or cells: Spodoptera frugiperda (Sf9) insect cells, baculovirus (pFB-HTb)
T1 sequence (Q5S007 1326-2527): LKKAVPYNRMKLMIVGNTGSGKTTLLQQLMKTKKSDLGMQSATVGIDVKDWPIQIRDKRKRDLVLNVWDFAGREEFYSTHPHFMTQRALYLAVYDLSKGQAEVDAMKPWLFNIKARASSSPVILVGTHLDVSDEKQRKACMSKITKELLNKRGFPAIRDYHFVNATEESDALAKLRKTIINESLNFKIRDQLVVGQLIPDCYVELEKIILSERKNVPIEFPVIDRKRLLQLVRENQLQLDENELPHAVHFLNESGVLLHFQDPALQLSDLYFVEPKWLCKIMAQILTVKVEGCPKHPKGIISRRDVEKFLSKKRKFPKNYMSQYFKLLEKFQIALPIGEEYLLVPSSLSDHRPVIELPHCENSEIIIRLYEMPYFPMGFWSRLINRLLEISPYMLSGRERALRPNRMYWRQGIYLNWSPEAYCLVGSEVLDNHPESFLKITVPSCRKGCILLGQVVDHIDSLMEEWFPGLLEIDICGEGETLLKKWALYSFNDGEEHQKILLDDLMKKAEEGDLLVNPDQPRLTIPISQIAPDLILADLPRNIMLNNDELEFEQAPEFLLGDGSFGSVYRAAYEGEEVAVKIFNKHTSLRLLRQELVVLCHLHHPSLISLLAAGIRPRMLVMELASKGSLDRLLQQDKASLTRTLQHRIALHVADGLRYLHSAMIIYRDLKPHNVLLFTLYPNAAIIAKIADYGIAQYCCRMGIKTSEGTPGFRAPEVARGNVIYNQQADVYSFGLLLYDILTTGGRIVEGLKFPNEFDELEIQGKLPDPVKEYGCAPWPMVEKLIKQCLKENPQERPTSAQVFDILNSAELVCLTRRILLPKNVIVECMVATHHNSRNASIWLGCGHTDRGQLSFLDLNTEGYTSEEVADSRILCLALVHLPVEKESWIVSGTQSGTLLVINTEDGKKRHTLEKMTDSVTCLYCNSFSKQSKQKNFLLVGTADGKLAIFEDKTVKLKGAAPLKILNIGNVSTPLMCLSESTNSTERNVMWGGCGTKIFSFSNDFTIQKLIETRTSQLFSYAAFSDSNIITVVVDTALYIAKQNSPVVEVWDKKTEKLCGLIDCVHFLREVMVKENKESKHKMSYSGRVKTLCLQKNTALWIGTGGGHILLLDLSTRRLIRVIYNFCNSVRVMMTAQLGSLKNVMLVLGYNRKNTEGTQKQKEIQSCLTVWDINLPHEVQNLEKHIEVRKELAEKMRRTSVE
Briefly: LRRK2 peptide substrate assay. Particulars: mean pIC50 of multiple test results. The assay is classed as biochemical. How it is done:
(§1) Compounds of formula (I) may be tested for in vitro kinase activity in accordance with the following assays, using the non natural, in vitro, substrates moesin and the Longer Biotin-LRRKtide. Moesin and a shorter version of the peptide were identified as substrates in Jaleel et al. (2007, Biochem J, 405: 307-317).
LRRK2 Peptide Substrate Assay
a) 100 nl of a 1:4 serial dilution of test compound with a top final assay concentration of 30 μM is added to certain wells in a low volume 384 well black plate. 100 nl of DMSO is used in certain wells as controls.
(§2) b) 3 μl enzyme solution (80 nM purified recombinant 6His-Tev-LRRK2 (1326-2527) in assay buffer: 50 mM Hepes (pH 7.2), 10 mM MgCl2, 150 mM NaCl, 5% glycerol, 0.0025% triton X-100 and 1 mM DTT) is added to certain wells. 3 μl assay buffer is added to certain wells as a 100% inhibition (no enzyme) control. c) After incubation at room temperature for 30 minutes, 3 μl substrate solution (2 μM Biotin-LRRKtide peptide substrate and ATP at Km in assay buffer) is added to each well. Plates are then incubated for a further 1-2 hours at room temperature (incubation time varies depending upon rate and linearity of reaction with differing enzyme batches). d) 6 μl detection solution (50 nM Streptavidin SureLight® APC (PerkinElmer), 4 nM Eu-W1024 labelled anti-rabbit IgG antibody (PerkinElmer), 1:500 dilution (dilution determined on a batch to batch basis) of Phospho-Ezrin (Thr567)/Radixin (Thr564)/Moesin (Thr558) Polyclonal Antibody (New England Biolabs) and 60 mM EDTA in buffer: 40 mM Hepes (pH 7.2), 150 mM NaCl, 0.03% BSA) is added to each well. Plates are then incubated for a further 2 hours at room temperature before reading on a suitable plate reader (Excitation 330 nm, emission 620 nm (Eu) and 665 nm (APC)). Data is analysed using ActivityBase software (IDBS). LRRK2 AlphaScreen Desensitised Protein Substrate Assay a) 100 nl of a 1:4 serial dilution of test compound with a top final assay concentration of 30 μM is added to certain wells in a low volume 384 well black plate. 100 nl of DMSO is used in certain wells as controls. b) 3 μl enzyme solution (80 nM purified recombinant 6His-Tev-LRRK2 (1326-2527) in assay buffer: 50 mM Hepes (pH 7.2), 10 mM MgCl2, 150 mM NaCl, 5% glycerol, 0.0025% triton X-100 and 1 mM DTT) is added to certain wells. 3 μl assay buffer is added to certain wells as a 100% inhibition (no enzyme) control. c) After incubation at room temperature for 30 minutes, 3 μl substrate solution (200 nM GST-PS-Moesin (400-577) and 2 mM ATP in assay buffer) is added to each well. Plates are then incubated for 20 minutes at room temperature. d) 6 μl detection solution (1:250 dilution of AlphaLisa Protein A Acceptor beads (PerkinElmer), 1:64 dilution of AlphaLisa Gluthathione Donor beads (PerkinElmer) and 1:600 dilution (dilution determined on a batch to batch basis) of Phospho-Ezrin (Thr567)/Radixin (Thr564)/Moesin (Thr558) Polyclonal Antibody (New England Biolabs) in a buffer: 50 mM Hepes (pH 7.5), 250 mM NaCl, 60 mM EDTA, 1% PEG and 0.01% Brij 35) is added to each well. Plates are then incubated for a further 2 hours at room temperature in the dark before reading on an EnVision™ plate reader with AlphaScreen HTS turbo option module and AlphaScreen settings. Data is analysed using ActivityBase software (IDBS). Pharmacological Data

For assay [2], the target named is T1, 6His-Tev-LRRK2 (1326-2527). Put plainly: LRRK2 AlphaScreen desensitised protein substrate assay. As to conditions: mean pIC50 of multiple test results. Type of assay: biochemical. The procedure:
as §1, §2
On the technique in general: Alpha assays give light when donor and acceptor beads are brought close together.

The mark [3] stands for this setting: stated as threshold, read-out: pIC50 in the LRRK2 peptide substrate assay (bounds) (converted).
Setting [4] is: stated as threshold, read-out: pIC50 in the LRRK2 alphascreen desensitised protein substrate assay (bounds) (converted).
[5] abbreviates: Biotin-LRRKtide peptide substrate, ATP at Km, read-out: LRRK2 peptide substrate assay (pIC50) (converted).
Where [6] appears, read: GST-PS-Moesin (400-577) substrate, 2 mM ATP, read-out: LRRK2 alphascreen desensitized protein substrate assay (pIC50) (converted).

As for `O=C(Nc1ccnnc1)c1cc(Br)c(CN2CCOCC2)cc1OCc1ccccc1` [Example 1, 5-Bromo-4-(4-morpholinylmethyl)-2-[(phenylmethyl)oxy]-N-4-pyridazinylbenzamide], the values for the IC50 in assay [1] (setting [3]) and in assay [2] (setting [4]) were not above 100 nM and not above 25100 nM, respectively.
On to `O=C(Nc1cccnc1)c1cc(Br)c(CN2CCOCC2)cc1OCc1ccccc1` [Example 2, 5-Bromo-4-(4-morpholinylmethyl)-2-[(phenylmethyl)oxy]-N-3-pyridinylbenzamide], for which the IC50 is 10 nM in assay [1] (setting [5]), not above 10 nM in assay [1] (setting [3]), 251 nM in assay [2] (setting [6]) and not above 316 nM in assay [2] (setting [4]).
On to `Cn1cc(-c2cc(C(=O)Nc3ccnnc3)c(OCc3ccccc3)cc2CN2CCOCC2)cn1` [Example 3, 5-(1-Methyl-1H-pyrazol-4-yl)-4-(4-morpholinylmethyl)-2-[(phenylmethyl)oxy]-N-4-pyridazinylbenzamide], for which the IC50 is not above 100 nM in assay [1] (setting [3]) and not above 25100 nM in assay [2] (setting [4]).
In the case of `Cn1cc(-c2cc(C(=O)Nc3cccnc3)c(OCc3ccccc3)cc2CN2CCOCC2)cn1` [Example 4, 5-(1-Methyl-1H-pyrazol-4-yl)-4-(4-morpholinylmethyl)-2-[(phenylmethyl)oxy]-N-3-pyridinylbenzamide], the IC50 was 15.8 nM in assay [1] (setting [5]), not above 100 nM in assay [1] (setting [3]), 126 nM in assay [2] (setting [6]) and not above 316 nM in assay [2] (setting [4]).
Turning to `Cc1cc(OCc2ccccc2)c(C(=O)Nc2ccnnc2)cc1Br` [Example 5, 5-Bromo-4-methyl-2-[(phenylmethyl)oxy]-N-4-pyridazinyl benzamide], the values for the IC50 in assay [1] (setting [3]) and in assay [2] (setting [4]) were not above 10 nM and not above 316 nM, respectively.
The like results for `Cc1cc(OCc2ccccc2)c(C(=O)Nc2cccnc2)cc1Br` [Example 6, 5-Bromo-4-methyl-2-[(phenylmethyl)oxy]-N-3-pyridinylbenzamide] were, in that order, not above 10 nM and not above 316 nM.
Regarding `Cc1cc(OCc2ccccc2)c(C(=O)Nc2cccnc2)cc1-c1cnn(C)c1` [Example 7, 4-Methyl-5-(1-methyl-1H-pyrazol-4-yl)-2-[(phenylmethyl)oxy]-N-3-pyridinylbenzamide], the IC50 was 15.8 nM in assay [1] (setting [5]), not above 100 nM in assay [1] (setting [3]), 158 nM in assay [2] (setting [6]) and not above 316 nM in assay [2] (setting [4]).
On to `Cc1cc(OCc2ccccc2)c(C(=O)Nc2ccnnc2)cc1-c1cnn(C)c1` [Example 8, 4-Methyl-5-(1-methyl-1H-pyrazol-4-yl)-2-[(phenylmethyl)oxy]-N-4-pyridazinylbenzamide], for which the IC50 in assay [1] (setting [3]) is not above 100 nM; in assay [2] (setting [4]), not above 25100 nM.
For the molecule `Cc1cc(C(=O)Nc2cccnc2)c(OCc2ccccc2)cc1Br` [Example 9, 4-Bromo-5-methyl-2-[(phenylmethyl)oxy]-N-3-pyridinylbenzamide], the IC50 was 10 nM in assay [1] (setting [5]), not above 10 nM in assay [1] (setting [3]), 126 nM in assay [2] (setting [6]) and not above 316 nM in assay [2] (setting [4]).
For `Cc1cc(C(=O)Nc2ccnnc2)c(OCc2ccccc2)cc1Br` [Example 10, 4-Bromo-5-methyl-2-[(phenylmethyl)oxy]-N-4-pyridazinylbenzamide], the IC50 in assay [1] (setting [5]) was 6.31 nM; in assay [1] (setting [3]) it was not above 10 nM; in assay [2] (setting [6]), 100 nM; in assay [2] (setting [4]), not above 316 nM.
Turning to `Cc1cc(C(=O)Nc2cccnc2)c(OCc2ccccc2)cc1-c1cnn(C)c1` [Example 11, 5-Methyl-4-(1-methyl-1H-pyrazol-4-yl)-2-[(phenylmethyl)oxy]-N-3-pyridinylbenzamide], the IC50 in assay [1] (setting [5]) is 7.94 nM; in assay [1] (setting [3]) it was not above 10 nM; in assay [2] (setting [6]), 50.1 nM; in assay [2] (setting [4]), not above 316 nM.
Regarding `Cc1cc(C(=O)Nc2ccnnc2)c(OCc2ccccc2)cc1-c1cnn(C)c1` [Example 12, 5-Methyl-4-(1-methyl-1H-pyrazol-4-yl)-2-[(phenylmethyl)oxy]-N-4-pyridazinylbenzamide], the IC50 is 10 nM in assay [1] (setting [5]), not above 10 nM in assay [1] (setting [3]), 100 nM in assay [2] (setting [6]) and not above 316 nM in assay [2] (setting [4]).
The like results for `Cn1cc(-c2cc(OCc3ccc(F)cc3)c(C(=O)Nc3cccnc3)cc2CN2CCOCC2)cn1` [Example 13, 2-{[(4-Fluorophenyl)methyl]oxy}-4-(1-methyl-1H-pyrazol-4-yl)-5-(4-morpholinylmethyl)-N-3-pyridinylbenzamide] were, in that order, 79.4 nM, not above 100 nM, 794 nM and not above 25100 nM.
Regarding `Cn1cc(-c2cc(C(=O)Nc3cccc(Cl)c3)c(OCc3ccccc3)cc2CN2CCOCC2)cn1` [Example 50, 2-(benzyloxy)-N-(3-chlorophenyl)-5-(1-methyl-1H-pyrazol-4-yl)-4-(morpholinomethyl)benzamide, Hydrochloride], the IC50 in assay [1] (setting [3]) was not above 100 nM.
The same measure, in the same setting: the result for `Cn1cc(-c2cc(C(=O)Nc3cccc(Cl)c3)c(OCc3ccccc3)cc2CN2CCOCC2)cn1` [Example 51, 2-(benzyloxy)-N-(3-chlorophenyl)-5-(1-methyl-1H-pyrazol-4-yl)-4-(morpholinomethyl)benzamide, Maleic acid salt] reads not above 100 nM; that for `CN1CCN(C(=O)c2cc(OCc3ccccc3)c(C(=O)Nc3cccnc3)cc2Cl)CC1` [Example 54, 2-(benzyloxy)-5-chloro-4-(4-methylpiperazine-1-carbonyl)-N-(pyridin-3-yl)benzamide], not above 100 nM.
